Like-named read-outs stand apart in the source and are kept apart here. Values belong to the compound of their own block, whether it stands above or below them.
Experiments:
[1] = target: β-glucosidase (Sweet Almond); assay: β-glucosidase inhibitory activity assay (p-nitrophenyl-β-D-glucopyranoside); format: biochemical
Experimental: (§1) Infrared (IR) spectra were recorded on a 1720X Fourier transformation-infrared (FT-IR) spectrometer (Perkin Elmer, MA, USA) or an IRAffinity-1S FT-IR spectrometer (Shimadzu, Kyoto, Japan). High-resolution mass spectra (HRMS) were recorded on a JMS-700 (2) mass spectrometer (JEOL, Tokyo, Japan). Nuclear magnetic resonance (NMR) spectra were recorded at 27 °C on 400-MR-DD2 (Agilent Technologies, CA, USA) and 600-DD2 (Agilent Technologies, CA, USA) instruments in CDCl3 or acetone-d6 using tetramethylsilane as an internal standard. Specific rotations were measured with a JASCO P-2300 spectrometer (JASCO Co., Tokyo, Japan). Liquid column chromatography was conducted on silica gel (Fuji Silysia FL-60D). Analytical thin layer chromatography (TLC) was performed on Silicagel 70 F254 plates (Wako Pure Chemical Industries, Tokyo, Japan), and compounds were detected by dipping the plates into an ethanolic solution of phosphomolybdic acid followed by heating. Microwave (MW)-aided reactions were carried out in a Biotage Initiator® reactor (PartnerTech Atvidaberg AB for Biotage Sweden AB, Uppsala, Sweden). NaBH4 and trifluoroacetic acid (TFA) were purchased from Wako Pure Chemical Industries (Wako Pure Chemical Industries, Tokyo, Japan). BF3·Et2O was purchased from Sigma-Aldrich Co., LLC (St. Lewis, MO, USA). DMP was purchased from TCI (Tokyo Chemical Industry Co., Ltd., Tokyo, Japan). […] Deoxygalactonojirimycin was purchased from Funakoshi Co., Ltd., Tokyo, Japan).
(§2) After 20 min incubation at 37 °C, the reaction was quenched by addition of Na2CO3 solution (0.5 M, 100 μL). The amount of liberated p-nitrophenol was measured colorimetrically at 400 nm (optical density at 400 nm: ODtest).
Assays of β-glucosidase, α-mannosidase, β-mannosidase, and β-galactosidase inhibitory activities were carried out as above using p-nitrophenyl-β-D-glucopyranoside, p-nitrophenyl-α-D-mannopyranoside, p-nitrophenyl-β-D-mannopyranoside, and p-nitrophenyl-β-D-galactopyranoside as substrates.

[2] = target: T1, β-galactosidase (Bovine Liver) (Bos taurus, UniProt Q58D55); assay: β-galactosidase inhibitory activity assay (p-nitrophenyl-β-D-galactopyranoside); format: biochemical
T1 sequence (Q58D55 28-653): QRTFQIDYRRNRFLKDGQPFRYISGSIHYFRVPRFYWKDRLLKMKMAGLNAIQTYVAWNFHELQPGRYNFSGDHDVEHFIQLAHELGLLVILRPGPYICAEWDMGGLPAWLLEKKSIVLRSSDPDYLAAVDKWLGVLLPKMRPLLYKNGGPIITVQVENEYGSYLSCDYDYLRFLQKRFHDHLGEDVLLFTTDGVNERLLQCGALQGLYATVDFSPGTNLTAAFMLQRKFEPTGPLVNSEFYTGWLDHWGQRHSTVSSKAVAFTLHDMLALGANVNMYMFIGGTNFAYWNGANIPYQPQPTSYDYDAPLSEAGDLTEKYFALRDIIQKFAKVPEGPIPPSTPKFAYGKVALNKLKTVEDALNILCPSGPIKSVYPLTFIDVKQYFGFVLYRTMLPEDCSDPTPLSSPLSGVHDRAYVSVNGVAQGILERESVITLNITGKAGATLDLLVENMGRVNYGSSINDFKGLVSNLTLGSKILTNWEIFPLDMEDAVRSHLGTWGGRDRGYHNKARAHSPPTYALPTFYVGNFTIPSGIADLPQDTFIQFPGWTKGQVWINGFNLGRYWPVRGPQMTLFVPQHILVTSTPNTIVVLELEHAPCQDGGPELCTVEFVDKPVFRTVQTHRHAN
From the text: (§3) The synthesized compounds were subjected to glycosidase inhibitory activity assays (Table 1). Herein, α-galactosidase (from green coffee bean) and β-galactosidase (from bovine lever) were used in addition to the three previously employed glycosidases (α-glucosidase, β-glucosidase, and α-mannosidase). To facilitate comparison across studies, we used the same batches of the three abovementioned glycosidases as those employed before. Some compounds were not tested against all five enzymes because of the limited amount of materials.
Infrared (IR) spectra were recorded on a 1720X Fourier transformation-infrared (FT-IR) spectrometer (Perkin Elmer, MA, USA) or an IRAffinity-1S FT-IR spectrometer (Shimadzu, Kyoto, Japan). High-resolution mass spectra (HRMS) were recorded on a JMS-700 (2) mass spectrometer (JEOL, Tokyo, Japan). Nuclear magnetic resonance (NMR) spectra were recorded at 27 °C on 400-MR-DD2 (Agilent Technologies, CA, USA) and 600-DD2 (Agilent Technologies, CA, USA) instruments in CDCl3 or acetone-d6 using tetramethylsilane as an internal standard. Specific rotations were measured with a JASCO P-2300 spectrometer (JASCO Co., Tokyo, Japan). […]
After 20 min incubation at 37 °C, the reaction was quenched by addition of Na2CO3 solution (0.5 M, 100 μL). The amount of liberated p-nitrophenol was measured colorimetrically at 400 nm (optical density at 400 nm: ODtest). […]

α-glucosidase (Yeast) [3] = target: T2, α-glucosidase (Yeast) (Saccharomyces cerevisiae, UniProt P53341); assay: α-glucosidase inhibitory activity assay (p-nitrophenyl-α-D-glucopyranoside); format: biochemical
T2 sequence (P53341 whole entry): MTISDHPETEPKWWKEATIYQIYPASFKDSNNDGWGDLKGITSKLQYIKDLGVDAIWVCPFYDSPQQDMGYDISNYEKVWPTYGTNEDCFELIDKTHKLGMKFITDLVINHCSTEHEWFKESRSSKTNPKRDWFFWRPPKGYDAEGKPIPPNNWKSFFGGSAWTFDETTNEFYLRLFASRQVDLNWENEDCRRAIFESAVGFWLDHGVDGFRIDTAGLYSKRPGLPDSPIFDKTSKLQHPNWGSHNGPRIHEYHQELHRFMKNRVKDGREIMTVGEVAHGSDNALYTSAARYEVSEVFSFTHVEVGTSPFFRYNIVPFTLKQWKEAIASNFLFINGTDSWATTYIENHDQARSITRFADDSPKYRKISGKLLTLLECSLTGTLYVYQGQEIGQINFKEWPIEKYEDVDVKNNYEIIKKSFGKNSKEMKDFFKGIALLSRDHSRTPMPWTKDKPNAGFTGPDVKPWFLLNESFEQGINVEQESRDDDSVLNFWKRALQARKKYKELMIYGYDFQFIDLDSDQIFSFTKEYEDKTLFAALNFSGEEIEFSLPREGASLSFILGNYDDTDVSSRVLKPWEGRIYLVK
From the text: as §3, §1, §2

[4] = target: β-glucosidase (Sweet Almond); design: method as in PMID 28124983; conditions: values of a previous work; cited from earlier work
α-glucosidase (Yeast) [5] = target: T2, α-glucosidase (Yeast); conditions: cited from earlier work; for IC50: values of a previous work
[6] = target: T3, α-mannosidase (Jack Bean) (Canavalia ensiformis, UniProt C0HJB3); conditions: read-out: IC50 (M) α-mannosidase (Jack Bean); values of a previous work; cited from earlier work
T3 construct: purchased Sigma-Aldrich Co., LLC lot 055K7047 (catalogue number not given)
T3 sequence (C0HJB3 1-562): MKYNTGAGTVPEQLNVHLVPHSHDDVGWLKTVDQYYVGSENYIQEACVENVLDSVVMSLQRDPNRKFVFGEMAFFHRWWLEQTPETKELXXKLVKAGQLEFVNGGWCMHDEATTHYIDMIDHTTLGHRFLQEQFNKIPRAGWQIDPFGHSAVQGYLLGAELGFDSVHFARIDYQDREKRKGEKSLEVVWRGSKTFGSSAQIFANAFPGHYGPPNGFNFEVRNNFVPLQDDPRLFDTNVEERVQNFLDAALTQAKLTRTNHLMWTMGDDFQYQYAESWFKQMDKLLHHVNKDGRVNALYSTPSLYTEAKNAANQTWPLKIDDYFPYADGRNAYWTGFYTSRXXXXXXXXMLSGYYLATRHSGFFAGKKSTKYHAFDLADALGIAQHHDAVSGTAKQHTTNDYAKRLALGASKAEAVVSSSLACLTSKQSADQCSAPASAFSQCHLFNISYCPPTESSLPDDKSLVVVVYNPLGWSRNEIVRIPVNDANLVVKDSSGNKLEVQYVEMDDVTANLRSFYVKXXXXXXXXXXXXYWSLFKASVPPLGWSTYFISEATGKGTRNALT
T3 sequence (C0HJB3 563-981): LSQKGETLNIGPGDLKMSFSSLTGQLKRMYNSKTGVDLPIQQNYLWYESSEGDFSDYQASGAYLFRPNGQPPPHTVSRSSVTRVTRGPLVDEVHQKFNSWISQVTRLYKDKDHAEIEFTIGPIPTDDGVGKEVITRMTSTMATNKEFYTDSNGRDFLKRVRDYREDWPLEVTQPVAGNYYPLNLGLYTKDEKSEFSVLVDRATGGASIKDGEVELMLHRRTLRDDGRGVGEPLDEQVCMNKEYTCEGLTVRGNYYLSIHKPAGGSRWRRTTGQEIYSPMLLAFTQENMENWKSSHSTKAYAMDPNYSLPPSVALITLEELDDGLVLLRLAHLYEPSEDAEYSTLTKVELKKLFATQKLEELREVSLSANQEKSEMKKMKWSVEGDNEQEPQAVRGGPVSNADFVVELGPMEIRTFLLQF

IC50 [1]: […] | α-glucosidase inhibitory activity (in words) (α-glucosidase (Yeast) [3]): moderately inhibited
Structure (SMILES): COC(=O)C1=CC(O)C(O)C(O)C1OC1C(OC)C(C(=O)OC)=CC(O)C1O (single isomer, unassigned; (-)) [(−)-24]
β-galactosidase inhibitory activity (in words) [2]: showed β-galactosidase inhibitory activities

IC50 [1]: […] | α-glucosidase inhibitory activity (in words) (α-glucosidase (Yeast) [3]): moderately inhibited
Structure (SMILES): COC(=O)C1=CC(O)C(O)C(O)C1OC1C(OC)C(C(=O)OC)=CC(O)C1O (single isomer, unassigned; (+)) [(+)-6]

Structure (SMILES): COC(=O)C1=C[C@@H](O)[C@@H](O)[C@@H](O[C@@H]2C(C(=O)OC)=C[C@H](O)[C@H](O)[C@@H]2O)[C@@H]1Cl [(−)-4, (−)-pericosine E]
IC50 [4]: > 7.8 mM | IC50 (α-glucosidase (Yeast) [5]): 1.5 mM | IC50 [6]: > 0.0078 M

IC50 [1]: […] | α-glucosidase inhibitory activity (in words) (α-glucosidase (Yeast) [3]): moderately inhibited
Structure (SMILES): COC(=O)C1=CC(O)C(O)C(O)C1OC1C(OC)C(C(=O)OC)=CC(O)C1O (single isomer, unassigned; (-)) [(−)-7]

Structure (SMILES): OC[C@H]1NC[C@H](O)[C@@H](O)[C@H]1O [Deoxygalactonojirimycin, reference compound]
IC50 [2]: 0.14 mM

IC50 [1]: […] | α-glucosidase inhibitory activity (in words) (α-glucosidase (Yeast) [3]): moderately inhibited
Structure (SMILES): COC(=O)C1=CC(O)C(O)C(O)C1OC1C(OC)C(C(=O)OC)=CC(O)C1O (single isomer, unassigned; (-)) [(−)-8]

Structure (SMILES): COC(=O)C1=C[C@H](O)[C@H](O)[C@H](O[C@H]2C(C(=O)OC)=C[C@@H](O)[C@@H](O)[C@H]2O)[C@H]1Cl [(+)-4, (+)-pericosine E]
IC50 [4]: > 7.8 mM | α-glucosidase inhibitory activity (in words) (α-glucosidase (Yeast) [5]): potent activity | IC50 (α-glucosidase (Yeast) [5]): 0.031 mM | IC50 [6]: > 0.0078 M

Structure (SMILES): COC(=O)C1=CC(O)C(O)C(OC2C(C(=O)OC)=CC(O)C(O)C2O)C1Cl (single isomer, unassigned; (-)) [(−)-5]
IC50 [4]: > 7.8 mM | IC50 [6]: > 0.0078 M

From article PMC7230162, “Syntheses and Glycosidase Inhibitory Activities, and in Silico Docking Studies of Pericosine E Analogs Methoxy-Substituted at C6” (Marine Drugs, 2020)
